# Measured values from patent US6703399B2, “Halo-alkyl esters of camptothecins and methods of treating cancer using these compounds” (priority 2002, dated 2004).
# Columns and labels:
# [1] = water-soluble sodium carboxylate salt; cited from earlier work
# [2] = Plasma CPT after oral administration in humans, closed lactone share of AUC; type: in vivo
# [3] = Pharmacokinetics of CPT in human plasma, lactone half-life; type: in vitro ADME
# [4] = Plasma CPT after intrastomach administration in mice, closed lactone share of AUC; type: in vivo
# [5] = Plasma levels of 9NC after oral administration to Phase I clinical trial patients, share in closed lactone form; type: in vivo, humans; details: on average
# human tumor xenografts [6] = assay: Antitumor activity against human tumor xenografts in mice; type: in vivo
# Source text: (§1) Clearly, there is a pressing need for a modification which will slow and delay the lactone ring opening upon its entrance into the blood circulation.
# human tumor xenografts [7] = details: in mice; cited from earlier work
# [8] = Plasma levels of 9NC after i.s. administration, share in closed lactone form; type: in vivo; details: species not given, mice from b8 and b10
# tumors = assay: Clinical responses in Phase I patients; type: in vivo; details: in humans
# Source text: as §1
compound,measurement,setting,value
CC[C@@](O)(C(=O)[O-])c1cc2n(c(=O)c1CO)Cc1cc3ccccc3nc1-2.[Na+] [sodium carboxylate salt],anticancer activity in clinical evaluation,[1],devoid of anticancer activity
same,toxicity in clinical evaluation,[1],severe toxicity
20(S)-camptothecin [CPT],"closed lactone ring form, share of the area under the curve",[2],about 0.4%
same,half-life time of the drug with lactone intact,[3],30 min
same,"closed lactone form, share of the area under the curve",[4],approximately 54%
"CC[C@@]1(O)C(=O)OCc2c1cc1n(c2=O)Cc2cc3c([N+](=O)[O-])cccc3nc2-1 [Example 9NC, 9-nitrocamptothecin]",share of drug present in plasma in the closed lactone form,[5],~3%
same,complete tumor regressions,human tumor xenografts [6],32/32
same,potency relative to CPT against human tumor xenografts,human tumor xenografts [7],2-3 times
same,share of drug present in the plasma in the closed lactone form,[8],57%
same,complete tumor regressions,tumors,2/32
